Assays:
[1] = test system: Cisplatin-sensitive (OV2008) human ovarian epithelial cells; assay: Apoptosis (nuclear staining, DNA ladders, TUNEL) in cisplatin-sensitive ovarian cancer cells; assay type: cell-based; details: for incidence of apoptosis: cisplatin 0-30 μM or taxol 0-1.0 μM, up to 48 hours
Description: (§1) Cisplatin-sensitive (OV2008) and -resistant (C13) human ovarian epithelial cells were cultured in a chemically-defined medium at 37° C. for up to 48 hours in the presence or absence of TGFβ (20 ng/ml), taxol (0–1.0 μM) or cisplatin (0–30 μM). At the end of the culture period, cells were either fixed for immunocytochemistry and TUNEL analyses, or snap frozen for subsequent extraction for IAP mRNA and proteins analyses.
(§2) Human ovarian epithelial cancer cells were fixed (4% formalin in PBS; 10 min. RT), washed in PBS, resuspended in Hoescht 33248 stain (0.1 μg/ml PBS, 10 min) washed again and spotted onto slides for microscopy. Nuclear staining was observed and photographed using a Zeiss fluorescent microscope equipped with an FITC filter. Apoptotic cells were identified by typical nuclear morphology, and counted using randomly selected fields and numbered photographic slides to avoid bias during counting.
Cellular DNA was extracted using the Qiagen Blood Amt kit. DNA was quantified by ethidium bromide fluorescence. DNA (0.5 μg) was then end labelled by incubating (20 min, RT) with Klenow enzyme (2 U in 10 mM Tris+5 mM MgCl2) and 0.1 μCi [α32P]dCTP. Unincorporated nucleotides were removed with the Qiagen nucleotide removal kit and samples were resolved by Tris-acetate-EDTA agarose (1.8%) gel electrophoresis. The gel was then dried (2 hr, no heat) and exposed to a Bio-Rad phosphoimager screen to densitometrically quantify low molecular weight DNA (<15 kBp) and subsequently to x-ray film at −80° C.
To identify cell death using the in situ cell death detection kit (Boehringer-Mannheim), slides prepared for histology were treated (20 min. 37° C.) with terminal tranferase in the presence of FITC-conjugated dUTP.

[2] = test system: HIAP-2 protein in OV2008 cells; assay: Western blot for HIAP-2 protein in OV2008 cells; assay type: cell-based, human
Description: as §1
(§3) Protein extracts were prepared from human surface epithelial cancer cells sonicated (8 s/cycle, 3 cycles) on ice in sucrose buffer (0.25 M sucrose, 0.025 M NaCl, 1 mM EGTA and 15 mM Tris-HCl pH 6.8, supplemented with 1 mM PMSF, 2 μg/ml of leupeptin and 5 μg/ml of aprotinin. The sonicates were centrifuged at 13,000×g for 10 min, the supernatants were collected and stored at −20° C. until electrophoretic analyses were performed. Protein concentration was determined by Bio-Rad Protein Assay. Proteins (10–30 μg) were resolved by one-dimensional SDS-PAGE, and electrophoretically transferred to nitrocellulose membrane. Membranes were blocked with 5% non-fat milk, and subsequently incubated with rabbit polyclonal antibody for IAP anti-human Hiap-2ΔE(960529; 1:1000 dilution), anti-human NAIP E1.0 (951015; 1:1000 dilution) or anti-human Xiap (1:1000 dilution) diluted in TBST (10 mM Tris-buffered saline, 0.1% Tween-20, pH 7.5) containing 5% milk. […]

HIAP-2 mRNA in C13 cells = assay: Northern blot for HIAP-2 mRNA in C13 cells; assay type: cell-based, human
Description: as §1
(§4) Total RNA from ovarian surface epithelial cancer cells by using RNeasy Kit (Qiagen). The RNA samples (10–15 μg) were quantified spectrophotometrically and size-fractioned by electrophoresis on formaldehyde-agarose gels (1.1%) containing 1 μg/ml ethidium bromide to confirm even loading of RNA samples and adequate separation of 28S and 18S ribosomal bands. The RNAs bands were blotted onto a nylon membrane and cross-linked by UV light. Membranes were prehybridized in 50% formamide, saline sodium citrate (SSC; 750 mM NaCl, 75 mM Na citrate), 1×Denhardt's solution, 1% SDS, 4 mM EDTA and 100 μg/ml sheared salmon sperm DNA for 4 h at 42° C. Hybridization was performed overnight at 42° C. with 20 million cpm of ^32P-labelled IAP cDNA probes (rat Naip, rat Xiap or human Hiap-2) added to the prehybridization buffer. […] Data were normalized by the respective 28S and expressed as a percentage of the control (defined as 100%).

[3] = test system: XIAP protein in OV2008 cells; assay: Western blot for XIAP protein in OV2008 cells; assay type: cell-based, human
Description: as §1, §3

[4] = test system: HIAP-2 protein in C13 cells; assay: Western blot for HIAP-2 protein in C13 cells; assay type: cell-based, human
Description: as §1, §3

[5] = test system: XIAP protein in C13 cells; assay: Western blot for XIAP protein in C13 cells; assay type: cell-based, human
Description: as §1, §3

[6] = test system: HIAP-2 mRNA in OV2008 cells; assay: Northern blot for HIAP-2 mRNA in OV2008 cells; assay type: cell-based, human
Description: as §1, §4

HeLa cells = assay: Apoptosis and 26 kDa xiap cleavage product (Western blot) in HeLa cells; assay type: cell-based, human; details: 18 hours; for 26 kDa xiap cleavage product: HeLa cells, cycloheximide 20 μg/ml, TNFα 1,000 U/ml, anti-Fas antibody 1 μg/ml; for apoptosis of HeLa cells: cycloheximide 20 μg/ml or TNFα 1,000 U/ml alone
Description: A 26 kDa xiap-reactive band was also observed under the following experimental conditions. Jurkat cells (a transformed human T cell line) were induced to undergo apoptosis by exposure to an anti-Fas antibody (1 μg/ml). Identical cultures of Jurkat cells were exposed either to: (1) anti-Fas antibody and cycloheximide (20 μg/ml), (2) tumor necrosis factor alpha (TNF-α, at 1,000 U/ml), or (3) TNF-α and cycloheximide (20 μg/ml). All cells were harvested 6 hours after treatment began. In addition, as a negative control, anti-Fas antibody was added to an extract after the cells were harvested. The cells were harvested in SDS sample buffer, electrophoresed on a 12.5% SDS polyacrylamide gel, and electroblotted onto PVDF membranes using standard methods. The membranes were immunostained with a rabbit polyclonal anti-xiap antibody at 1:1000 for 1 hour at room temperature. Following four 15 minute washes, a goat anti-rabbit antibody conjugated to horse-radish peroxidase was applied at room temperature for 1 hour. Unbound secondary antibody was washed away, and chemiluminescent detection of xiap protein was performed. […] In addition, a novel, approximately 26 kDa xiap-reactive band was also observed in apoptotic cell extracts, but not in the control, untreated cell extracts (FIG. 13).
Cleavage of xiap occurs in a variety of cell types, including other cancer cell lines such as HeLa. […] HeLa cells were treated with either: (1) cyclohexamide (20 μg/ml), (2) anti-Fas antibody (1 μg/ml), (3) anti-Fas antibody (1 μg/ml) and cyclohexamide (20 μg/ml), (4) TNFα (1,000 U/ml), or (5) TNFα (1,000 U/ml) and cyclohexamide (20 μg/ml). All cells were harvested 18 hours after treatment began. As above, anti-Fas antibody was added to an extract after the cells were harvested. HeLa cells were harvested, and the Western blot was probed under the same conditions as used to visualize xiap-reactive bands from Jurkat cell samples. A 26 kDa xiap band was again seen in the apoptotic cell preparations (FIG. 14). Furthermore, the degree of xiap cleavage correlated positively with cellular exposure to apoptotic triggers.
The time course over which the 26 kDa cleavage product accumulates was examined by treating HeLa and Jurkat cells with anti-Fas antibody (1 μg/ml) and harvesting them either immediately, or 1, 2, 3, 5, 10, or 22 hours after treatment. Protein extracts were prepared and Western blot analysis was performed as described above.

[7] = test system: Cisplatin-resistant (C13) human ovarian epithelial cells; assay: Apoptosis (nuclear staining, DNA ladders, TUNEL) in cisplatin-resistant ovarian cancer cells; assay type: cell-based; details: TGFβ 20 ng/ml
Description: as §1, §2
Cellular DNA was extracted using the Qiagen Blood Amt kit. DNA was quantified by ethidium bromide fluorescence. DNA (0.5 μg) was then end labelled by incubating (20 min, RT) with Klenow enzyme (2 U in 10 mM Tris+5 mM MgCl2) and 0.1 μCi [α32P]dCTP. […] The gel was then dried (2 hr, no heat) and exposed to a Bio-Rad phosphoimager screen to densitometrically quantify low molecular weight DNA (<15 kBp) and subsequently to x-ray film at −80° C. […]

Compound: N.N.[Cl][Pt][Cl] [Cisplatin, cisplatin]
- incidence of apoptosis [1]: concentration-dependent increase

Compound: CC(=O)O[C@H]1C(=O)[C@@]2(C)[C@H]([C@H](OC(=O)c3ccccc3)[C@]3(O)C[C@H](OC(=O)[C@H](O)[C@@H](NC(=O)c4ccccc4)c4ccccc4)C(C)=C1C3(C)C)[C@]1(OC(C)=O)CO[C@@H]1C[C@@H]2O [Taxol]
- incidence of apoptosis [1]: induced apoptosis
- content of approx. 45 kDa immunoreactive fragment of HIAP-2 ([2]; Taxol): decreased
- HIAP-2 protein level ([2]; Taxol 0.04-1.0 μM, concentration-dependent, more pronounced than in resistant cells): decreased
- suppression of HIAP-2 mRNA abundance (HIAP-2 mRNA in C13 cells; cisplatin-resistant cells, Taxol 0.2 μM): ineffective
- XIAP protein level ([3]; OV2008 cells, Taxol 0.04-1.0 μM, concentration-dependent, more pronounced than in resistant cells): decreased
- content of approx. 45 kDa immunoreactive fragment of HIAP-2 ([4]; Taxol): increased
- HIAP-2 protein level ([4]; Taxol 0.04-1.0 μM, concentration-dependent, less pronounced than in sensitive cells): decreased
- XIAP protein level ([5]; C13 cells, Taxol 0.04-1.0 μM, concentration-dependent, less pronounced than in sensitive cells): decreased
- suppression of HIAP-2 mRNA abundance ([6]; cisplatin-sensitive cells, Taxol 0.2 μM): approx. 80%

Compound: C[C@@H]1C[C@@H]([C@H](O)CC2CC(=O)NC(=O)C2)C(=O)[C@@H](C)C1 [cycloheximide]
- 26 kDa xiap cleavage product (HeLa cells): little cleavage product
- apoptosis of HeLa cells (HeLa cells): only minor apoptosis

Compound: TGFβ: TGFβ (20 ng/ml) added to ovarian cancer cell cultures
- induction of apoptosis ([1]; TGFβ 20 ng/ml): induced apoptosis
- HIAP-2 mRNA (HIAP-2 mRNA in C13 cells; C13 cells, TGFβ 20 ng/ml): not C13
- influence on Xiap protein content ([3]; cisplatin-sensitive cells, TGFβ 20 ng/ml): markedly suppressed
- induction of apoptosis [7]: not in C13
- influence on Xiap protein content ([5]; cisplatin-resistant cells, TGFβ 20 ng/ml): only marginal
- HIAP-2 mRNA ([6]; OV2008 cells, TGFβ 20 ng/ml): decreased

Compound: TNFα
- 26 kDa xiap cleavage product (HeLa cells): little cleavage product
- apoptosis of HeLa cells (HeLa cells): only minor apoptosis

Source: US7087584B2, “Detection and modulation of IAPs and NAIP for the diagnosis and treatment of proliferative disease” (Aegera Therapeutics Inc., priority 1997, dated 2006)
